Assay results published in US9688722B2, “Substrates and inhibitors of prolyl oligopeptidase and methods of use” (The Board of Regents of the University of Oklahoma, priority 2012, dated 2017).
Entries after “also recorded” stand apart in the source; their conditions may differ.

Tests used:
[1] = molecular target: T1, POP (Homo sapiens, UniProt P48147); experiment: POP inhibition constants (Ki) with Tic-Pro-AFC substrate; format: biochemical
T1 sequence (P48147 1-710): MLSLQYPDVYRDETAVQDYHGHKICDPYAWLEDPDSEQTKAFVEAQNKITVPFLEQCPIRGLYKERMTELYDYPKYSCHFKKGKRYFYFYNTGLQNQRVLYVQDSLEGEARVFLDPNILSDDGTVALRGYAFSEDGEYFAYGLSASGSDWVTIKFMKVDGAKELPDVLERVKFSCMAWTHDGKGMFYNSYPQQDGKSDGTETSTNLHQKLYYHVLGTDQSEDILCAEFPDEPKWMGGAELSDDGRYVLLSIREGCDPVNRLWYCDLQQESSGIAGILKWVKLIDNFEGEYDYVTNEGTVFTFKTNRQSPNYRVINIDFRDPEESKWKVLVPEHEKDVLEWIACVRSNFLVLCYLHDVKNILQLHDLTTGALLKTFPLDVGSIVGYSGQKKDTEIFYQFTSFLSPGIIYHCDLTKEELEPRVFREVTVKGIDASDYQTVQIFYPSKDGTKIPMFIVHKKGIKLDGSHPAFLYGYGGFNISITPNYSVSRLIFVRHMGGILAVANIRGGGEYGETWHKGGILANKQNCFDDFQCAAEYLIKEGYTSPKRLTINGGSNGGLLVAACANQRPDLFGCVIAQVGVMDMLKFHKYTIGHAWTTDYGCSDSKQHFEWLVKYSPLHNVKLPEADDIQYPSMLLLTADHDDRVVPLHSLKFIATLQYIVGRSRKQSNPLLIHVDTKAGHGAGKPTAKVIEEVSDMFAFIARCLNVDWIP
Protocol: For accurate assessment of kinetic parameters, saturating concentrations of substrate were used. For standard curves, dilutions of AFC (7-amino-4-trifluoromethylcoumarin) were prepared in the same assay buffer and corresponding fluorescence was measured.

[2] = molecular target: T2, FAP activity on WI-38 fibroblast surfaces (Homo sapiens, UniProt Q12884); experiment: Whole cell activity assay, cleavage of C95 on WI-38 fibroblasts; format: cell-based; conditions: substrate C95, inhibitor 10 μM, 1 μM or 100 nM added at two hours
T2 construct: host or cells: WI-38 fibroblasts
T2 sequence (Q12884 1-760): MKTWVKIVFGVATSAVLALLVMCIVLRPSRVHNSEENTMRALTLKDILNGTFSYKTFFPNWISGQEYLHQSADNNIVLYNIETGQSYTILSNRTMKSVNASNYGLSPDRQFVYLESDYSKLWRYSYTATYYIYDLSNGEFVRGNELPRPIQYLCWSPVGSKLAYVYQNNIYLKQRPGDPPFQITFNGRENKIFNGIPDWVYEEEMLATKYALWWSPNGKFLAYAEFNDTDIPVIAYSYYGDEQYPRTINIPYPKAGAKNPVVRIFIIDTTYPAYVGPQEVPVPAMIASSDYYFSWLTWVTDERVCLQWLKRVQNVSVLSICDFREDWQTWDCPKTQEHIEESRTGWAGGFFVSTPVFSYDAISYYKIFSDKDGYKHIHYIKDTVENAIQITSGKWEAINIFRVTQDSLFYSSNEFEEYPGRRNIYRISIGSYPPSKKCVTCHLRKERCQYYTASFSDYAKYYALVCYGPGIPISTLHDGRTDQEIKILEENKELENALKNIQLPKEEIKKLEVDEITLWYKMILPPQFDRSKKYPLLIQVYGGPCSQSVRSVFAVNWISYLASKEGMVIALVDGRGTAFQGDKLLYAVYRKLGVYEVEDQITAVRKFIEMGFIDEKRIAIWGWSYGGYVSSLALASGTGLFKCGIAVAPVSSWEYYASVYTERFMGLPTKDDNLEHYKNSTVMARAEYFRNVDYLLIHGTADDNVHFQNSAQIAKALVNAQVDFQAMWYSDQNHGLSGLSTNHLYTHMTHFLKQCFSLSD
Protocol: WI-38 fibroblasts were grown on plastic, washed once with HBSS, after which the M83 inhibitor 10 μM in HBSS was added at zero time to one set, and buffer only to the other four sets. The fluorescent substrate C95 was added to all sets of wells and Δ fluorescence/min, reflecting cleavage of C95 over time, was allowed to proceed for two hours when 10 μM, 1 μM or 100 nM of the M83 inhibitor was added to each of three sets of wells.
Whole cell activity assays: Cells were cultured in normal growth media unless otherwise stated. […] Ten μl of fluorescent substrate, C95 were added to give a final concentration of 125 μM, and fluorescence was measured with time at 360/460 nm excitation/emission wavelengths using an FL600 microplate fluorescence reader (Bio-tek Instruments). Fluorescence units were converted to FAP units/100,000 cells by using a conversion factor determined from an APCE standard curve of prolyl-specific endopeptidase activity, such that 1 FAP unit is equivalent to the fluorescence produced by 1 ng of APCE/min. Since FAP and POP cleave the C95 substrate at an equivalent rate, both FAP and POP activities are expressed as FAP units in all figures.

Selectivity Ki (POP) / Ki (APCE/FAP) ([1]; ratio of Ki values): 1.3
Ki ([1]; substrate Tic-Pro-AFC): 7.4 nM
Structure (SMILES): CC(=O)N[C@@H](CCCNC(=N)N)C(=O)NCCOCCOCC(=O)N[C@H](C)C(=O)N1CCC[C@H]1B(O)O [Compound M83, acetyl-Arg-AEEA-(D)Ala-(L)boroPro]
inhibition of FAP proteolytic activity on the cell surface [2]: instantly, and essentially totally, inhibited; also recorded: instantly abolished endopeptidase activity
